Results published in ChEMBL document CHEMBL1743201, “Casarett and Doull's Toxicology The Basic Science of Poisons, 7th edition” (2008).

What was measured:
Format in all cases: ADME
[1] = biological target: T1, Cytochrome P450 1A2 (Homo sapiens, UniProt P05177); assay: Clinically relevant inducers of human liver microsomal P450 enzymes, isoform CYP1A2; conditions: microsomes
T1 sequence (P05177 whole entry): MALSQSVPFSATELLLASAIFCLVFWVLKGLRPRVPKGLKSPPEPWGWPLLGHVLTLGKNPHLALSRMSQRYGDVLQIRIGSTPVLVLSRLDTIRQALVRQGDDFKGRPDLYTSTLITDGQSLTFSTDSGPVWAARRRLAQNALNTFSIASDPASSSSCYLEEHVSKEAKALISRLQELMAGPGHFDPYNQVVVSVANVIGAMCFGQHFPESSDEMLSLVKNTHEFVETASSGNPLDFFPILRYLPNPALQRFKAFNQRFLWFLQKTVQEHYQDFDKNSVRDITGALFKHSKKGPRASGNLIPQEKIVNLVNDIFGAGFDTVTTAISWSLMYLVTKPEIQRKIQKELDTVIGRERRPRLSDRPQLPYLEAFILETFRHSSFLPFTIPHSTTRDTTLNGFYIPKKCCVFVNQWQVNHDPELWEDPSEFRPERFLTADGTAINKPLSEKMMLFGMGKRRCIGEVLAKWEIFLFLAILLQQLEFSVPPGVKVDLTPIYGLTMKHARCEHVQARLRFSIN

[2] = biological target: T2, UDP-glucuronosyltransferase 2B4 (Homo sapiens, UniProt P06133); assay: Substrate of human UDP-glucuronosyltransferase UGT2B4
T2 sequence (P06133 whole entry): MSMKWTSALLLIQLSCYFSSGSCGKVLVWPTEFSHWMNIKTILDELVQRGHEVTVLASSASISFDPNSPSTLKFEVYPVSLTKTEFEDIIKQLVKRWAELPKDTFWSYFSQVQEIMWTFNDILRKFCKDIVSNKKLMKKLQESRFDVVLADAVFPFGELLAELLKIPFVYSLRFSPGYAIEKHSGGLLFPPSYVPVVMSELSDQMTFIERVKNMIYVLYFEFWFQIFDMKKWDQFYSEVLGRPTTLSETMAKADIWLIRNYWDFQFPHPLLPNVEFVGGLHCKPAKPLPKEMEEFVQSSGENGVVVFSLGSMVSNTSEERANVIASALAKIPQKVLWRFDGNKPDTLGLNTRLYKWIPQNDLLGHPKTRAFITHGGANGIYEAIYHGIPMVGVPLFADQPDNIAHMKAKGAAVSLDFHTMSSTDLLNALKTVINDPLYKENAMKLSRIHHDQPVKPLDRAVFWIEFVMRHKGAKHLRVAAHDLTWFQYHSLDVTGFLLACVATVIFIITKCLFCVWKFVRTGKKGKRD

[3] = biological target: Cytochrome P450 2C19 (Homo sapiens, UniProt P33261); assay: Clinically relevant substrates of human liver microsomal P450 enzymes, isoform CYP2C19; conditions: microsomes
Chain of Cytochrome P450 2C19 (P33261 whole entry, canonical isoform): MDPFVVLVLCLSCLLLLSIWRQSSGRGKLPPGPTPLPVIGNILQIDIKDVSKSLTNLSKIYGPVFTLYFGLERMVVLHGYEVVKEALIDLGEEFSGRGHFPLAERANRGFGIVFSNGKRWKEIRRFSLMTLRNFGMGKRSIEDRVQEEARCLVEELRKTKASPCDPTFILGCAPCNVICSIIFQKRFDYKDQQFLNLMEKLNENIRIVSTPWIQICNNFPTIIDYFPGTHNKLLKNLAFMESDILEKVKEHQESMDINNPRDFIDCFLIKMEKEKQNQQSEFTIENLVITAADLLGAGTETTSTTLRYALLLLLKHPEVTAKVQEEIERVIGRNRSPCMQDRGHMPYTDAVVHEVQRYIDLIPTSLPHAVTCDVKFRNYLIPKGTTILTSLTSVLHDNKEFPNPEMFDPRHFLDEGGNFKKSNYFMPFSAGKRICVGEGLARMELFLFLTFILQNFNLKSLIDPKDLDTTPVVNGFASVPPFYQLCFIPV

[4] = biological target: T3, UDP-glucuronosyltransferase 1A4 (Homo sapiens, UniProt P22310); assay: Substrate of human UDP-glucuronosyltransferase UGT1A4
T3 sequence (P22310 whole entry): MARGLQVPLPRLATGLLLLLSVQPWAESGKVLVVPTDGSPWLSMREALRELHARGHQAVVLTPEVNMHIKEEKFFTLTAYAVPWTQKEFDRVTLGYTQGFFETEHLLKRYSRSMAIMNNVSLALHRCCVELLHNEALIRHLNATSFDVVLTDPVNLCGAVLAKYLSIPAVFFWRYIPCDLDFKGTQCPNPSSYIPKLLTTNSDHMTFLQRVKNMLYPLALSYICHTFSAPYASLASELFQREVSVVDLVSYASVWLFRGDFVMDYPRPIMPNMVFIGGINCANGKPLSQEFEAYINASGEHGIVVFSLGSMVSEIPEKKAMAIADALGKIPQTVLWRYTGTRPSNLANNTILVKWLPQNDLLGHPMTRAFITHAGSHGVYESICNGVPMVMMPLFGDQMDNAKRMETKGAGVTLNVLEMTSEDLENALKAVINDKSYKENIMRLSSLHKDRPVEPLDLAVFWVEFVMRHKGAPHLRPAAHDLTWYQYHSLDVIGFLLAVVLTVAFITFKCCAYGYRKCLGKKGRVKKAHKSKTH

[5] = biological target: T4, UDP-glucuronosyltransferase 1A7 (Homo sapiens, UniProt Q9HAW7); assay: Substrate of human UDP-glucuronosyltransferase UGT1A7
T4 sequence (Q9HAW7 whole entry): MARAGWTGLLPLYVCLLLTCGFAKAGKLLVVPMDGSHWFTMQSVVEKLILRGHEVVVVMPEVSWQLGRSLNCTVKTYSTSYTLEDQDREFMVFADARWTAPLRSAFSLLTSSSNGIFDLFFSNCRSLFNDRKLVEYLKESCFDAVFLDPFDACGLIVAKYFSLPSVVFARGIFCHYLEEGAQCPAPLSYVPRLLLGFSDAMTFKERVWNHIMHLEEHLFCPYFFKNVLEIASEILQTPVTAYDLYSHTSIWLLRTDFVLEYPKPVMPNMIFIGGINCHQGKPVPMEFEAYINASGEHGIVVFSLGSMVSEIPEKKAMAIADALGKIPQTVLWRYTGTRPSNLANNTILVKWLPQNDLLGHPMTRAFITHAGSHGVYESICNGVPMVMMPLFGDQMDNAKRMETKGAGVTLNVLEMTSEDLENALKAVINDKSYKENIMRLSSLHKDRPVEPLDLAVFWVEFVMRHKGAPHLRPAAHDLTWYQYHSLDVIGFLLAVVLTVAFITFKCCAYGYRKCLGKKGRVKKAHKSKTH

[6] = biological target: T5, UDP-glucuronosyltransferase 1A8 (Homo sapiens, UniProt Q9HAW9); assay: Substrate of human UDP-glucuronosyltransferase UGT1A8
T5 sequence (Q9HAW9 whole entry): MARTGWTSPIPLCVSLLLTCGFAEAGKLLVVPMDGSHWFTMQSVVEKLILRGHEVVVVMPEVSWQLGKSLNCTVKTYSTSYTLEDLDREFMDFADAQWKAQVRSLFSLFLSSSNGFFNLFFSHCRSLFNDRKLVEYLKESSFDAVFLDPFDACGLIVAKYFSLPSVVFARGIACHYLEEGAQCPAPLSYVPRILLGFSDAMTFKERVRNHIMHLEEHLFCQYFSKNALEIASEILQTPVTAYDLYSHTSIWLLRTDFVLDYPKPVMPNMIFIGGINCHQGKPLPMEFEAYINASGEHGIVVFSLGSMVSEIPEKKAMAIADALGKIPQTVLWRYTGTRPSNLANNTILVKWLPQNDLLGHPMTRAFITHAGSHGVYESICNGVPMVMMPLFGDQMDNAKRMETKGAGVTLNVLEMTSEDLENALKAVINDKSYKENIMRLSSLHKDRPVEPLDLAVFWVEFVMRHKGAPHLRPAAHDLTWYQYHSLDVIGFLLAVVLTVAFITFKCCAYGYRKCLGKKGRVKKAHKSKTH

[7] = biological target: T6, UDP-glucuronosyltransferase 1A10 (Homo sapiens, UniProt Q9HAW8); assay: Substrate of human UDP-glucuronosyltransferase UGT1A10
T6 sequence (Q9HAW8 whole entry): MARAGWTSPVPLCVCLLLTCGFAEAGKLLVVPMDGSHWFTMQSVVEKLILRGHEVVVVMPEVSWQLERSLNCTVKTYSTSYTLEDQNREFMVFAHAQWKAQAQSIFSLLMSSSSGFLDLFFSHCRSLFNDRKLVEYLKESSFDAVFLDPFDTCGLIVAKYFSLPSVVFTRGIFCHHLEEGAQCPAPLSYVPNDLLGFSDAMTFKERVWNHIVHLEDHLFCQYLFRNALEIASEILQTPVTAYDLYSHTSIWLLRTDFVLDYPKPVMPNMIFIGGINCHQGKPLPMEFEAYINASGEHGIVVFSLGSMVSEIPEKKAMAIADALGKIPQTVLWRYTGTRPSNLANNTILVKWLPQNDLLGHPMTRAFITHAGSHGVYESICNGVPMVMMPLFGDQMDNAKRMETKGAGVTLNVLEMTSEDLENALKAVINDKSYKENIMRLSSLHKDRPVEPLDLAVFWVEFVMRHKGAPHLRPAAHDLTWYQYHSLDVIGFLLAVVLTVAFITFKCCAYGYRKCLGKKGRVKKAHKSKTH

[8] = biological target: T7, UDP-glucuronosyltransferase 1A6 (Homo sapiens, UniProt P19224); assay: Substrate of human UDP-glucuronosyltransferase UGT1A6
T7 sequence (P19224 whole entry): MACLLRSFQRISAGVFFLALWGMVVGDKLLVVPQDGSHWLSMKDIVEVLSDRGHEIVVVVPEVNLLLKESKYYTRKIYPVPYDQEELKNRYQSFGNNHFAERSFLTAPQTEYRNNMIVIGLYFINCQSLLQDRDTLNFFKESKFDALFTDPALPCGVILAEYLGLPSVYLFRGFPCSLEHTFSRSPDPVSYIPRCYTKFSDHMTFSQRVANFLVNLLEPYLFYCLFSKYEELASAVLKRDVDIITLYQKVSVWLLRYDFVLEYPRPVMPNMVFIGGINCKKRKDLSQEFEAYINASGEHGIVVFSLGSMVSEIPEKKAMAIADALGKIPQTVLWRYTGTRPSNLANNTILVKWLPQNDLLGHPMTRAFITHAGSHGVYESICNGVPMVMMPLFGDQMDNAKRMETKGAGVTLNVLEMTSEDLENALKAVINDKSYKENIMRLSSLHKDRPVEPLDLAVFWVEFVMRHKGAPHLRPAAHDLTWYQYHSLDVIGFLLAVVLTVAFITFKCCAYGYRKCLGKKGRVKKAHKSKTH

[9] = biological target: T8, UDP-glucuronosyltransferase 2B15 (Homo sapiens, UniProt P54855); assay: Substrate of human UDP-glucuronosyltransferase UGT2B15
T8 sequence (P54855 whole entry): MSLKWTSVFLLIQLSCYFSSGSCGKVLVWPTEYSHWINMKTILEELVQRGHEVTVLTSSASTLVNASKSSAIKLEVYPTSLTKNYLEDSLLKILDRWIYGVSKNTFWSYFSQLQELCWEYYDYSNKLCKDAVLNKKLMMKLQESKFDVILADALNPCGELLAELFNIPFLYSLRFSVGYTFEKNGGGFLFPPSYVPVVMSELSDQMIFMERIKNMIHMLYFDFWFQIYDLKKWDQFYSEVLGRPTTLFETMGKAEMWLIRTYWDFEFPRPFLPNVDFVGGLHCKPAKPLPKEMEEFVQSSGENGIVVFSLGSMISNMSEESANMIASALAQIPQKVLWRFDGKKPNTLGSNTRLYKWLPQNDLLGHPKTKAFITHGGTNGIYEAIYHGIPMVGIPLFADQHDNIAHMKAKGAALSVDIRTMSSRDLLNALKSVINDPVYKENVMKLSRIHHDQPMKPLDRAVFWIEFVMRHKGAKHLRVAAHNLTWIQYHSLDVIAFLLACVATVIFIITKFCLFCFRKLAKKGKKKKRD

[10] = biological target: Cytochrome P450 2D6 (Homo sapiens, UniProt P10635); assay: Clinically relevant inhibitors of human liver microsomal P450 enzymes, isoform CYP2D6; conditions: microsomes
Chain of Cytochrome P450 2D6 (P10635 whole entry, canonical isoform): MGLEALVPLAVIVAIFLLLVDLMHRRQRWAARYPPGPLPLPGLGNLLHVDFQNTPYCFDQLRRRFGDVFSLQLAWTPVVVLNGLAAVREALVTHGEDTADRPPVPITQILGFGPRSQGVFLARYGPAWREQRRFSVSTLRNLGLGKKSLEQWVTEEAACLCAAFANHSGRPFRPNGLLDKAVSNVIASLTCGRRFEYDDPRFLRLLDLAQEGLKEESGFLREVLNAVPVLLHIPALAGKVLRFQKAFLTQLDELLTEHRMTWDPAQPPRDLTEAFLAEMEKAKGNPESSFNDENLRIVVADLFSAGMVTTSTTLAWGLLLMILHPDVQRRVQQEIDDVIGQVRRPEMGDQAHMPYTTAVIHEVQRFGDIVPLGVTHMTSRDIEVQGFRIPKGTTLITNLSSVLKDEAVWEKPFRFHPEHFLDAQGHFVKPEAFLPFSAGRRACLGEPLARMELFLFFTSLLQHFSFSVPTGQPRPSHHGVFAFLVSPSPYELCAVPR

[11] = biological target: T9, Sulfotransferase 1E1 (Homo sapiens, UniProt P49888); assay: Major substrate of human cytosolic sulfotransferase SULT1E1
T9 sequence (P49888 whole entry): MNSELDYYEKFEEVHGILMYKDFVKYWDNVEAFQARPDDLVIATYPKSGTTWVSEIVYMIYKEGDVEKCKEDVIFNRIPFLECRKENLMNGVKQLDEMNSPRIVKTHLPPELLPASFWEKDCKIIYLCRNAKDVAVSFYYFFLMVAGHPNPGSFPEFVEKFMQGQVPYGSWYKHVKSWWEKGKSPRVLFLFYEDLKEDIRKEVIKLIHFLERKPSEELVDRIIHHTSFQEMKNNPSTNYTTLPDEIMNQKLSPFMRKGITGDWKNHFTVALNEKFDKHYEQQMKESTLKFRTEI

[12] = biological target: T1, Cytochrome P450 1A2; assay: Clinically relevant inhibitors of human liver microsomal P450 enzymes, isoform CYP1A2; conditions: microsomes

O=c1cc(-c2ccccc2)oc2ccc3ccccc3c12 [BETA-NAPHTHOFLAVONE]
Activity [1]: Inducer

COc1ccc2c3c1O[C@H]1[C@@H](O)C=C[C@H]4[C@@H](C2)N(C)CC[C@@]341 [CODEINE]
Activity [2]: Substrate

Cc1ccc2cc3c(ccc4ccccc43)c3c2c1CC3 [3-METHYLCHOLANTHRENE]
Activity [1]: Inducer

Cc1c(OCC(F)(F)F)ccnc1C[S+]([O-])c1nc2ccccc2[nH]1 (stereo unspecified) [LANSOPRAZOLE]
Activity [3]: Substrate | Activity [1]: Inducer

CN(C)CCC=C1c2ccccc2CCc2ccccc21 [AMITRIPTYLINE]
Activity [4]: Substrate

COc1c(C)c2c(c(O)c1C/C=C(\C)CCC(=O)O)C(=O)OC2 [MYCOPHENOLIC ACID]
Activity [5]: Substrate | Activity [6]: Substrate | Activity [7]: Substrate

CN1CCN(CCCN2c3ccccc3Sc3ccc(C(F)(F)F)cc32)CC1 [TRIFLUOPERAZINE]
Activity [4]: Substrate

C[C@]12CC[C@@H](O)C[C@@H]1CC[C@@H]1[C@@H]2CC[C@]2(C)C(=O)CC[C@@H]12 [ANDROSTERONE]
Activity [2]: Substrate

CCc1c2c(nc3ccc(O)cc13)-c1cc3c(c(=O)n1C2)COC(=O)[C@]3(O)CC [7-ETHYL-10-HYDROXYCAMPTOTHECIN]
Activity [8]: Substrate | Activity [5]: Substrate | Activity [9]: Substrate

CN(C)CCC=C1c2ccccc2C=Cc2ccccc21 [CYCLOBENZAPRINE]
Activity [4]: Substrate

COCC(=O)O[C@]1(CCN(C)CCCc2nc3ccccc3[nH]2)CCc2cc(F)ccc2[C@@H]1C(C)C [MIBEFRADIL]
Activity [10]: Inhibitor

C[C@]12CC[C@@H]3c4ccc(O)c(O)c4CC[C@H]3[C@@H]1CCC2=O
Activity [11]: Substrate | Activity [5]: Substrate

Oc1ccc(-c2ccccc2)cc1
Activity [5]: Substrate

Nc1nnc(-c2cccc(Cl)c2Cl)c(N)n1 [LAMOTRIGINE]
Activity [4]: Substrate

CN(C/C=C/C#CC(C)(C)C)Cc1cccc2ccccc12 [TERBINAFINE]
Activity [10]: Inhibitor

CCCCCCCCOC(=O)c1cc(O)c(O)c(O)c1 [OCTYL_GALLATE]
Activity [5]: Substrate

CN/C(=N/CCSCc1nc[nH]c1C)NC#N [CIMETIDINE]
Activity [12]: Inhibitor | Activity [10]: Inhibitor

Cc1cc2c(s1)Nc1ccccc1N=C2N1CCN(C)CC1 [OLANZAPINE]
Activity [4]: Substrate

Fc1ccc([C@@H]2CCNC[C@H]2COc2ccc3c(c2)OCO3)cc1 [PAROXETINE]
Activity [10]: Inhibitor
